One assay addresses T1, D2-receptors (Rattus norvegicus, UniProt P61169).
T1 construct: from tissue; host or cells: brain membranes
Put plainly: Affinity to D2-receptors, 3H-spiroperidol ligand (Test 2). The following applies: 3H-spiroperidol as ligand. The assay is classed as binding. The method, then:
Affinity to D2 -receptors
The binding assay is carried out essentially as described by Leysen et al., (Mol. Pharmacol. 21, 301-14, 1982) using ^3 H-spiroperidol as ligand.

In the next assay the target is T2, 5HT2-receptors (Rattus norvegicus, UniProt P14842).
T2 construct: from tissue; host or cells: brain membranes
T2 sequence (P14842 whole entry): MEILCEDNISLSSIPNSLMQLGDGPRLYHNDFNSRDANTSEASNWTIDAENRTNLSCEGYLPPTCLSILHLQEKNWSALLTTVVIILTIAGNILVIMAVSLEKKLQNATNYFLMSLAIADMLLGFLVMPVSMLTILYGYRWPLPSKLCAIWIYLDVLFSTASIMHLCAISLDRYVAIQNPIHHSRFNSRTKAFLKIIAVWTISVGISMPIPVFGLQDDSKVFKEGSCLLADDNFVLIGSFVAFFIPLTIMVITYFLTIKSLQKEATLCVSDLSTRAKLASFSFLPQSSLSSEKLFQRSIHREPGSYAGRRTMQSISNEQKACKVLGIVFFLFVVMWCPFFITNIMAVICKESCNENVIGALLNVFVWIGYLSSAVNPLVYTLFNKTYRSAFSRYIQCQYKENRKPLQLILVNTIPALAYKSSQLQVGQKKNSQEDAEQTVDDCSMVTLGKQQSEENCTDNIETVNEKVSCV
The assay is described as follows: Affinity to 5HT2-receptors, 3H-ketanserine ligand (Test 3). It is filed as binding. The following applies: 3H-ketanserine as ligand. How it is done:
Affinity to 5HT2 -receptors
The binding assay is carried out essentially as described by Leysen et al., (Mol. Pharmacol. 21, 301-14, 1982) using ^3 H-ketanserine as ligand.

For assay [1], the system named is amphetamine-induced hypermotility in mice. Put plainly: Antagonism of amphetamine-induced hypermotility in mice (Test 1). It is filed as in vivo. The following applies: Mus musculus, sc, 1.5 h, test compound s.c., d-amphetamine 2 mg/kg i.p., locomotor activity 90 min, dose reducing motility to midpoint between amphetamine and saline controls. The method, then:
Antagonism of amphetamine-induced hypermotility in mice
A low dose (2 mg/kg) of d-amphetamine administered to mice induced pronounced locomotor activity.
Female NMRI-mice, weighing about 25 g are divided into groups of 4 animals and placed in macrolon cages. The cages are placed on recording arenas in nine sound attenuated boxes with constant light and ventilation. After a familiarization period of 90 minutes the mice are brought up from the cages and treated in the following way; one control group receives saline i.p., one control group receives d-amphetamine sulphate, 2 mg/kg i.p. and test animals are treated s.c. with three different doses of the test compound and immediately thereafter with d-amphetamine 2 mg/kg i.p. Immediately after the administration the macrolon cages with the mice are put back into the test boxes and a computerized equipment records the locomotor activity in the cages for 90 minutes.
For each test compound 4 cages are treated with saline, 4 cages with only d-amphetamine and 6 cages/dose test compound+d-amphetamine. This is the total of three different experiments.
For each treatment group the mean number of counts during 90 minutes following the administration is calculated.
The ED50 -value (mg/kg) is calculated from the dose-response curve by means of linear regression. […]

The next assay has as its system 5-HT2 binding site. The following applies: background statement on known drugs; cited from earlier work.

Each structure is given as a SMILES string.

T1 sequence (P61169 whole entry): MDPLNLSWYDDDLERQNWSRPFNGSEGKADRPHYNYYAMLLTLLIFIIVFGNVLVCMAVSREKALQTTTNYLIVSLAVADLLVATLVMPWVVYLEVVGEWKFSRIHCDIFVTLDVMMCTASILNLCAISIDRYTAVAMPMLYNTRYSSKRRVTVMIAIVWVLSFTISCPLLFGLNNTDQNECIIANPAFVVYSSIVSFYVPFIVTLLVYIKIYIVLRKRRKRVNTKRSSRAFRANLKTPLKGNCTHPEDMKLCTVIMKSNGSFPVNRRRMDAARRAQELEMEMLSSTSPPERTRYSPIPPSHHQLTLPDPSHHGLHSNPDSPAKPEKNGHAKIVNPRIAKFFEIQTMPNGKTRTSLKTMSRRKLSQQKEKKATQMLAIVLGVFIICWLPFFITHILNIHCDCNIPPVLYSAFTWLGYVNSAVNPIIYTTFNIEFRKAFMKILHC

Broadly, the Ki is the equilibrium dissociation constant of an inhibitor or competing ligand from its target. Read a high Ki as weaker binding. With `Fc1ccc(C(CCCN2CCCN(c3ccccn3)CC2)c2ccc(F)cc2)cc1` [1:15, 4-[4,4-bis(p-fluorophenyl)butyl]-1-(2-pyridyl)-(1,4-diaza-cycloheptane)], the Ki was 25 nM at D2-receptors and 1.3 nM on 5HT2-receptors.

Broadly, the ED50 is the midpoint of the dose-response relation. Compound `NC(=O)c1cccnc1N1CCN(CCCC(c2ccc(F)cc2)c2ccc(F)cc2)CC1` [1:6, 4-[4,4-bis(p-fluorophenyl)butyl]-1-(3-carbamoyl-2-pyridyl)piperazine] had an ED50 in assay [1] of 0.3 mg/kg. In addition, the Ki at D2-receptors worked out at 30 nM; on 5HT2-receptors, 2.1 nM.

Compound `Fc1ccc(C(CCCN2CCN(c3ccccn3)CC2)c2ccc(F)cc2)cc1` [3:1, 4-[4,4-bis(p-fluorophenyl)butyl]-1-(2-pyridyl)-piperazine] registered an ED50 in assay [1] of 0.1 mg/kg. The inhibition constant Ki on D2-receptors was 60 nM; at 5HT2-receptors it was 5.8 nM.

As to `Cc1nc2sccn2c(=O)c1CCN1CCC(=C(c2ccc(F)cc2)c2ccc(F)cc2)CC1` [ritanserine], the “5HT2 blocking potency / binding site preference” value in the assay on 5-HT2 binding site is “labels preferentially the 5-HT2 binding site”.

(Values after patent US4937245A, “Bisphenylalkylpiperazine derivatives, a method of their preparation and a pharmaceutical preparation” (priority 1987, dated 1990).)
